Biological target: dihydropteroate synthase (DHPS, FolP1) (Mycobacterium tuberculosis, UniProt P9WND1)
Type: biochemical

Sequence of dihydropteroate synthase (DHPS, FolP1) (P9WND1 whole entry): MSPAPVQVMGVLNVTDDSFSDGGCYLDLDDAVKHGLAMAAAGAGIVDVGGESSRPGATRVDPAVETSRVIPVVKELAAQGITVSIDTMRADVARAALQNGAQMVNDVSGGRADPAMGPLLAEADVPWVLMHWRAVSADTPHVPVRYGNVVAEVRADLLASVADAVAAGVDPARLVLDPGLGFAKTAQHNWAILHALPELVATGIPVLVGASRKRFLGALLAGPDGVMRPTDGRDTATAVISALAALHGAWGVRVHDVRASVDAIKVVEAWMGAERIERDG

## Nc1ccc(C(=O)O)c(O)c1 [PAS, para-aminosalicylic acid]
  in vitro turnover assay with purified recombinant enzyme: purified recombinant enzymes confirmed that PAS was a kinetically and chemically competent substrate for M. tuberculosis FolP1

Source: publication PMC3792487 (Science (New York, N.Y.), 2012)
